Results: patent US6372943B1, “Polyenepolycarboxylic acids, derivatives thereof with respect to carboxyl groups, or salts of these” (Fujisawa Pharmaceutical Co., Ltd., priority 1998, dated 2002)
Each block holds one compound with its values, some of them ahead of it.

Key:
[1] = Sequestering ability against calcium ion under alkaline condition (pH13) (Example 17); format: physicochemical
Experimental: First, a liquid for measurement was prepared in the following manner. Potassium oxalate (0.6 g) was dissolved in 0.1N sodium hydroxide (500 mL), and in the resulting solution (10 mL) was dissolved pentasodium salt of S1 compound (40) mg) or heptasodium salt of S2 compound (40 mg) to give the liquid for measurement. As a titrant was used 2.2% calcium acetate solution.
The titrant was added dropwise to this liquid for measurement under stirring until the liquid for measurement became turbid by precipitation of calcium oxalate to determine the titer used A (mL). Another liquid for measurement not containing any one of the test samples was also measured in the same manner as above to determine the titer of blank B (mL). Based on the titers A and B, the sequestering ability against calcium ion was calculated according to the following formula. For comparison, an existing chelating agent (EDTA·4Na) was treated in the same manner as above to calculate its sequestering ability against calcium ion.
Sequestering ability against calcium ion [Ca ion (mg)/test sample (1 g)]=(A−B)×(1 g/test sample amount precisely weighed)×5
wherein the numeral “5” is the amount of Ca ion (5 mg) equivalent to 1 mL of the 2.2% calcium acetate solution.

[2] = Dispersing activity, organic pigment in a non-aqueous system case 2, S0 anhydride in ethyl acetate (Example 15); details: supernatant 0.25 mL
Experimental: (§1) Into a test tube (16×150 mm) was scaled and collected 0.5 mL of a suspension of copper phthalocyanine blue in ethyl acetate (40 mg/10 mL) under stirring with a point mixer, and ethyl acetate (4.5 mL) was further added thereto.
(§2) To this suspension was added a solution of each of S1 and S2 anhydrides obtained in preparation example 1 in ethyl acetate (20 mg/2 mL), and ethyl acetate was further added thereto to give a total amount of 6 mL. This liquid was stirred with a point mixer for 15 seconds, treated with ultrasonic wave for 30 minutes, and then allowed to stand for 10 to 30 minutes. The resulting supernatant liquid (0.5 mL) was colle cted, admixed with ethyl acetate to give a total amount of 3 mL and then measured for absorbance at 660 wavelength. From the absorbance thus measured, the dispersibility was evaluated.
S0 anhydride obtained in preparation example 11 was treated in the same manner as in example 14. The resulting supernatant liquid (0.25 mL) was collected, admixed with ethyl acetate to give a total amount of 3 mL, and then measured for absorbance. From the absorbance thus measured, the dispersing activity was evaluated.

[3] = Dispersing activity, organic pigment in a non-aqueous system case 1, ethyl acetate (Example 14)
Experimental: as §1, §2

[4] = Dispersing activity, organic pigment in a non-aqueous system case 3, ethanol (Example 16); details: supernatant 0.25 mL
Experimental: as §1, §2
The same procedure as in example 14 except for the use of ethanol instead of ethyl acetate was performed. The amount of a supernatant liquid was 0.25 mL. From the absorbance thus measured, the dispersing activity was evaluated.

[5] = Detergent activity against artificially soiled cloth, Launder-o-meter (Example 19); details: additive 0.25 g/L in basic washing liquid; 20° C., 10 minutes; ratio to washing liquid with no addition
Experimental: A detergency test was conducted using a Launder-o-meter as a detergency tester by washing 15 pieces of artificially wet-soiled cloth (size: 5×5 cm, dirt composition: oleic acid 28.3%, triolein 15.6%, cholesterol oleate 12.2%, liquid paraffin 2.5%, squalene 2.5%, cholesterol 1.6%, gelatin 7.0%, soil matter 29.8% and carbon black 0.2-0.3%) available from SENTAKU KAGAKU KYOKAI (foundation) in a washing liquid (liquid temperature: 20° C.) of the composition shown in Table 25 for 10 minutes, followed by rinsing for three minutes.
Judgment was done in the following manner. The reflectivity of each of the 15 pieces of artificially soiled cloth was measured before and after the test by means of a spectrocolorizeter, and from the mean value of the measured values the detergency was calculated according to the formula of Kubelka and Munk. The ratio of the detergency calculated of a sample to the detergency of a washing liquid with no addition was found as a detergency ratio.

[6] = Dispersing activity, organic pigment in an aqueous system case 1, phthalocyanine green (Example 12); details: standing three hours
Experimental: Into a test tube (16×150 mm) were placed a phthalocyanine green suspension (5 mL: phthalocyanine green 16 mg/distilled water 200 mL) and the filtrate (evaporated to dryness) obtained in culture example 1 in a predetermined amount, followed by stirring for 15 seconds with a point mixer. After the stirring, the resulting mixture liquid was allowed to stand for three hours, and then the diameter of phthalocyanine green deposited on the bottom of the test tube was measured to evaluate the dispersibility from the diameter measured. That is, a greater diameter measured is indicative of better dispersibility. For comparison, the same procedure was taken with commercially available naphthalenesulfonate or lignin sulfonate.

Compound: O=C([O-])CN(CCN(CC(=O)[O-])CC(=O)[O-])CC(=O)[O-].[Na+].[Na+].[Na+].[Na+] [EDTA · 4Na, EDTA·4Na]
- Sequestering ability against calcium ion, Ca ion [1]: 92 mg/1 g of a test sample

Compound: CC/C=C/C1=C(CCC(=O)O)C(=O)OC1=O [S0 anhydride]
- Absorbance (660 nm) ([2]; amount added 0.5 mg): 0.84
- Absorbance (660 nm) ([2]; amount added 1.0 mg): 0.89

Compound: O=P(O)(O)OP(=O)(O)OP(=O)(O)O [Sodium tripolyphosphate]
- Detergency ratio [5]: 1.38

Compound: O=C([O-])CC(O)(CC(=O)[O-])C(=O)[O-].[Na+].[Na+].[Na+] [Trisodium citrate]
- Detergency ratio [5]: 1.38

Other lines, results leading:

- Absorbance (660 nm) ([3]; amount added 2.5 mg): 0.66
- Absorbance (660 nm) ([3]; amount added 5 mg): 1.27
- Absorbance (660 nm) ([3]; amount added 10 mg): 1.86
- Absorbance (660 nm) ([4]; amount added 0.25 mg): 0.05
- Absorbance (660 nm) ([4]; amount added 0.50 mg): 0.69
- Absorbance (660 nm) ([4]; amount added 1.00 mg): 0.63
Compound: CC/C=C/C1=C(CC(CC)CC2=C(CCC(=O)O)C(=O)OC2=O)C(=O)OC1=O (stereo not shown) [S1 anhydride]

- Diameter of phthalocyanine green deposited ([6]; 0.17 mg): 4 mm
- Diameter of phthalocyanine green deposited ([6]; 0.85 mg): 5 mm
- Diameter of phthalocyanine green deposited ([6]; 1.7 mg): 6 mm
- Diameter of phthalocyanine green deposited ([6]; 8.5 mg): 6 mm
- Diameter of phthalocyanine green deposited ([6]; 17 mg): 6 mm
Compound: naphthalenesulfonate
